The record followed here is ChEMBL document CHEMBL1150925, “Gibbilimbols A-D, cytotoxic and antibacterial alkenylphenols from Piper gibbilimbum” (J Nat Prod, 1998).

Series [1] relates to Staphylococcus epidermidis. In words: Antibacterial activity against Staphylococcus epidermidis after 24 hrs by broth microdilution method. The class given is functional.
For series [2], the system named is Bacillus cereus. The experiment in a line: Antibacterial activity against Bacillus cereus after 24 hrs by broth microdilution method. In kind it is functional.
Series [3] concerns Bacillus cereus. In words: Antibacterial activity against Bacillus cereus at 60 ug/disk by paper disk diffusion technique. The class given is functional. Conditions: read-out: IZ. A general note: In agar diffusion tests the substance spreads into inoculated agar from a disc or well.
In another series the test system is Pseudomonas aeruginosa. In words: Antibacterial activity against Pseudomonas aeruginosa at 60 ug/disk by paper disk diffusion technique. In kind it is functional, organism-based.
For the next series, the system named is KB. The experiment in a line: Cytotoxicity against human KB cells. The class given is functional. To be noted: read-out: ED50 (the source's name).
Series [4] relates to Staphylococcus epidermidis. The experiment in a line: Antibacterial activity against Staphylococcus epidermidis at 60 ug/disk by paper disk diffusion technique. The class given is functional. Conditions: read-out: IZ.
Series [5] is described as follows: Toxicity in Artemia salina. In kind it is organism-based. Conditions: in vivo, read-out: LD50 (the source's name).

Structures are written as SMILES. In brackets after ≈: the same amount, converted by molar mass. Activity calls are given as the source filed them. Some results are limits rather than exact numbers.

By MIC is commonly meant the smallest concentration in the dilution series that meets the test's criterion for growth inhibition. A low value points to greater potency. `O=C(N[C@H](CO)[C@H](O)c1ccc([N+](=O)[O-])cc1)C(Cl)Cl` [CHLORAMPHENICOL]: the minimal inhibitory concentration (MIC) stood at 8 µg/mL (≈ 24.8 µM) in series [1] and 4 µg/mL (≈ 12.4 µM) against Bacillus cereus [2].

Regarding `CCCCC/C=C/CCCc1ccc(O)cc1` [GIBBILIMBOL A], the MIC (in series [1]; against Bacillus cereus [2]) was 4 µg/mL (≈ 17.2 µM) each time. Besides, the zone of inhibition at 60 µg/disc (with Bacillus cereus [3]; in series [4]) was under 2 mm throughout. Also, the outcome with Pseudomonas aeruginosa was inactive. Besides, in the series with KB, the EC50 worked out at 4.4 µg/mL (≈ 18.9 µM). Also, the LC50 in series [5] was 5.3 µg/mL (≈ 22.8 µM).

Regarding `CCCCCC/C=C/CCc1ccc(O)cc1` [GIBBILIMBOL B], the results for the MIC (in series [1]; in the series with Bacillus cereus [2]) were 2 µg/mL (≈ 8.61 µM) and 4 µg/mL (≈ 17.2 µM), respectively. The zone of inhibition at 60 µg/disc (in the series with Bacillus cereus [3]; in series [4]) was under 2 mm throughout. Further, in the series on Pseudomonas aeruginosa, the result was inactive. Besides, the EC50 with KB was 3.9 µg/mL (≈ 16.8 µM). The LC50 in series [5] was 4.9 µg/mL (≈ 21.1 µM).

For the compound `CCC/C=C/CCCc1ccc(O)cc1` [GIBBILIMBOL C], the MIC (in series [1]; against Bacillus cereus [2]) was 2 µg/mL (≈ 9.79 µM) each time. Moreover, the zone of inhibition at 60 µg/disc (with Bacillus cereus [3]; in series [4]) was under 2 mm each time. For the same compound, the result in the series with Pseudomonas aeruginosa was inactive. Also, the EC50 with KB was found to be 7.8 µg/mL (≈ 38.2 µM). Also, the LC50 in series [5] is 5.5 µg/mL (≈ 26.9 µM).

On to `CCCC/C=C/CCc1ccc(O)cc1` [GIBBILIMBOL D], for which the MIC (in series [1]; in the series on Bacillus cereus [2]) was 2 µg/mL (≈ 9.79 µM) in each case. For the same compound, the zone of inhibition at 60 µg/disc (in the series on Bacillus cereus [3]; in series [4]) was under 2 mm each time. Besides, the outcome with Pseudomonas aeruginosa was inactive. Further, in the series with KB, the EC50 turned out to be 2.1 µg/mL (≈ 10.3 µM). The LC50 in series [5] is 5 µg/mL (≈ 24.5 µM).
